Experiment [1] concerns the target E. coli. RNA polymerase holoenzyme supplemented with additional recombinant sigma 70 (Escherichia coli, UniProt P00579+P0A7Z4+P0A8T7+P0A8V2). In words: Prokaryotic (E. coli) RNA Polymerase Assay (Promoter Specific). It is filed as biochemical. Conditions: positive control at 20 ug/ml, column 12 rows A and B, plates #1 and #2. An excerpt: Prokaryotic (E. coli) RNA Polymerase Assay (Promoter Specific)
In this example, the targeted polymerase is the E. coli. RNA polymerase holoenzyme (α2 ββ'[…] ) supplemented with additional recombinant sigma 70 to increase the percentage of promoter specific transcription over non-specific elongation. GTP is omitted from the assay mixture. The substrate is a pBR-based plasmid with sigma 70, -10+-30 recognition sequences and a 260 nt G-free cassette
1. Make 1.45× assay buffer from 5× stock (1× final with extract and enzyme added). Add fresh components (polyethyleneglycol (PEG), dithiothreitol (DTT), and DNA) to final 1x solution; 50 mM Tris-Ac at pH 7.8, 100 μm ATP, 100 μM UTP, 1 μM CTP, 20 μg Bovine Serum Albumin/80 μl, PEG 3%, plasmid DNA template (described above), 0.3-0.5 μg/80 μl (from dose response), 2 mM DTT. Filter using 0.45 μm filter.
2. Make 1× storage buffer (50 mM Tris-Ac, 100 mM KAc, 100 mM MgCl2, 0.25 mg/ml BSA, 5 mM DTT). Add enzyme and [[…]]-CTP to a concentration such that there are about 80-100K cpm CTP in 15 μl, and enough enzyme (from dose response) to get 3000 cpm incorporated.
(§1) 3. Add 60 μl of assay buffer to filterplate.
(§2) 4. Add 8 μl of extract or compounds to filterplate.
5. Add 15 μl of ^33 P CTP+enzyme to filterplate. Shake 10 min.
(§3) 6. Incubate 45 min at 34° C.
7. Add 100 μl of DEAE Sephacell (Pharmacia) beads (20% slurry in 60% methanol, 20 mM EDTA, 0.02% NP-40). […]

Experiment [2] relates to Eukaryotic (Yeast) RNA Polymerase II. In words: Eukaryotic (Yeast) RNA Polymerase II Assay (Promoter Nonspecific). Conditions: positive control at 20 ug/ml, column 12 rows A and B, plates #1 and #2. It counts as biochemical, Candida. Here is the method: Eukaryotic (Yeast) RNA Polymerase II Assay (Promoter Nonspecific)
1. Make 1.45× assay buffer from 5× stock (1× final with extract and enzyme added). Add fresh components (PEG, DTT, and MnCl2) to final 1× solution: 50 mM Tris-Acetate at pH 7.8, 50 mM KAc, 0.4 mM ATP, 0.2 mM GTP and UTP, 1 μM CTP, 20 μg BSA/80 μl, PEG 3%, single stranded DNA, 0.2 μg/80 μl, 2 mM DTT, and 2 mM MnCl2. Filtrate using 0.45 μm filter.
2. Make 1× storage buffer (50 mM Tris-Ac, 100 mM KAc, 0.25 mg/ml BSA, 5 mM DTT). Add enzyme and [α-^33 P]-CTP to a concentration such that there are about 80-100 CK cpm of hot CTP in 15 μl, and enough enzyme (from dose response) to get 3000 cpm incorporated.
as §1, §2
5. Add 15 μl hot CTP+enzyme to filterplate. Shake 10 min.
as §3
7. Add 100 μl of DEAE beads (20% slurry in 60% methanol, 20 mM EDTA, 0.02% NP-40). Incubate 1 hr.
8. Wash 5 times (300 μl each) with 0.5M dibasic NaPi, 0.5% NP-40, 10% ethanol.
9. Seal bottom, add 160 μl cocktail, seal top, and count.
Column 1, rows A-D of both plate #1 and #2 are background counts. Column 1, rows E-H of both plate #1 and #2 are counts obtained without the additon of label. Column 12, rows A and B of both plate #1 and #2 are positive controls using the eukaryotic RNA polymerase II inhibitor α-amanitinat 20 ug/ml. […]

Where “and” joins values, the source holds several entries; their conditions need not be identical. Equal values may be shown once.

Chain of E. coli. RNA polymerase holoenzyme supplemented with additional recombinant sigma 70 (P0A7Z4 whole entry): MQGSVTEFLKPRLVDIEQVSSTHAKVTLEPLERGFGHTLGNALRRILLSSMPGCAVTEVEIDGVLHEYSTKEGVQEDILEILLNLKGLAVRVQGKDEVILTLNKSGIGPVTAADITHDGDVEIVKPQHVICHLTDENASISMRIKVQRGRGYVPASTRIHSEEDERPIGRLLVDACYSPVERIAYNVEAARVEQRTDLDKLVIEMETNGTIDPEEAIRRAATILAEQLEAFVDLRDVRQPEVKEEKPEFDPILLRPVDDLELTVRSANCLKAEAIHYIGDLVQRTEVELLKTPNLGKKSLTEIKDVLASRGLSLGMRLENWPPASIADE
Chain of E. coli. RNA polymerase holoenzyme supplemented with additional recombinant sigma 70 (P0A8V2 whole entry): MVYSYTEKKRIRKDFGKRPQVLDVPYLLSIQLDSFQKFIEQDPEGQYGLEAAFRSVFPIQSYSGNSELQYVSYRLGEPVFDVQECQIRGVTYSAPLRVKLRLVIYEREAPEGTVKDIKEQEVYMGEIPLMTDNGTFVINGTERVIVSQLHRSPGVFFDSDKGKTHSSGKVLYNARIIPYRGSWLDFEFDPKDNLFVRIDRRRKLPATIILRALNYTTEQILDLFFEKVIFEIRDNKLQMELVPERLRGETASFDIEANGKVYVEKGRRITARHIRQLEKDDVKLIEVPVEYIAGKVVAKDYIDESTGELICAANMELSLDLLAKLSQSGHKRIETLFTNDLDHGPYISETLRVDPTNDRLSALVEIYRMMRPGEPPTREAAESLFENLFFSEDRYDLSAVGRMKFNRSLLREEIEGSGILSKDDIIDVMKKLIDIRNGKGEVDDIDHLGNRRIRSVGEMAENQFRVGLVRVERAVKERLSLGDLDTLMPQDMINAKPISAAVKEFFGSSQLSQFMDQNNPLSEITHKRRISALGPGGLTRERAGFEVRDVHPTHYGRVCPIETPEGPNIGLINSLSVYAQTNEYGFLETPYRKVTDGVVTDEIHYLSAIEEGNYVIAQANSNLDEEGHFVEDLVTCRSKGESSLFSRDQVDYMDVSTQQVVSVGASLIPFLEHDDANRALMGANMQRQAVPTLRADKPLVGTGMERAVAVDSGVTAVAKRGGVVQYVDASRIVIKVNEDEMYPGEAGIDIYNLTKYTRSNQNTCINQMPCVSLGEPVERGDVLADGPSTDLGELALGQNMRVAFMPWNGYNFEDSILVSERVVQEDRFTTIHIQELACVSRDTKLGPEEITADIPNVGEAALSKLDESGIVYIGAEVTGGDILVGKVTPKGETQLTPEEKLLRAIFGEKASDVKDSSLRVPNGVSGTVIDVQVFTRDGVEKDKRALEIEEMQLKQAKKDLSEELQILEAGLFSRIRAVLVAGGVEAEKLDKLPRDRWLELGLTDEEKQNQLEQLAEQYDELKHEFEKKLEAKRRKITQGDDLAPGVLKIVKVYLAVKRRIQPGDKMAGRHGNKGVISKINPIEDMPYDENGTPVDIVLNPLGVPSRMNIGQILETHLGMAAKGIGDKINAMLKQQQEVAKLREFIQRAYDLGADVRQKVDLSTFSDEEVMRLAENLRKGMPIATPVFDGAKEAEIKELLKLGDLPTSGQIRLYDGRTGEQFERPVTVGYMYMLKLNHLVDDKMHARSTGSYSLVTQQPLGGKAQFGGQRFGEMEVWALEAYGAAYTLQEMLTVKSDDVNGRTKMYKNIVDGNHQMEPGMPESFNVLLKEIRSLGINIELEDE
Chain of E. coli. RNA polymerase holoenzyme supplemented with additional recombinant sigma 70 (P0A8T7 whole entry): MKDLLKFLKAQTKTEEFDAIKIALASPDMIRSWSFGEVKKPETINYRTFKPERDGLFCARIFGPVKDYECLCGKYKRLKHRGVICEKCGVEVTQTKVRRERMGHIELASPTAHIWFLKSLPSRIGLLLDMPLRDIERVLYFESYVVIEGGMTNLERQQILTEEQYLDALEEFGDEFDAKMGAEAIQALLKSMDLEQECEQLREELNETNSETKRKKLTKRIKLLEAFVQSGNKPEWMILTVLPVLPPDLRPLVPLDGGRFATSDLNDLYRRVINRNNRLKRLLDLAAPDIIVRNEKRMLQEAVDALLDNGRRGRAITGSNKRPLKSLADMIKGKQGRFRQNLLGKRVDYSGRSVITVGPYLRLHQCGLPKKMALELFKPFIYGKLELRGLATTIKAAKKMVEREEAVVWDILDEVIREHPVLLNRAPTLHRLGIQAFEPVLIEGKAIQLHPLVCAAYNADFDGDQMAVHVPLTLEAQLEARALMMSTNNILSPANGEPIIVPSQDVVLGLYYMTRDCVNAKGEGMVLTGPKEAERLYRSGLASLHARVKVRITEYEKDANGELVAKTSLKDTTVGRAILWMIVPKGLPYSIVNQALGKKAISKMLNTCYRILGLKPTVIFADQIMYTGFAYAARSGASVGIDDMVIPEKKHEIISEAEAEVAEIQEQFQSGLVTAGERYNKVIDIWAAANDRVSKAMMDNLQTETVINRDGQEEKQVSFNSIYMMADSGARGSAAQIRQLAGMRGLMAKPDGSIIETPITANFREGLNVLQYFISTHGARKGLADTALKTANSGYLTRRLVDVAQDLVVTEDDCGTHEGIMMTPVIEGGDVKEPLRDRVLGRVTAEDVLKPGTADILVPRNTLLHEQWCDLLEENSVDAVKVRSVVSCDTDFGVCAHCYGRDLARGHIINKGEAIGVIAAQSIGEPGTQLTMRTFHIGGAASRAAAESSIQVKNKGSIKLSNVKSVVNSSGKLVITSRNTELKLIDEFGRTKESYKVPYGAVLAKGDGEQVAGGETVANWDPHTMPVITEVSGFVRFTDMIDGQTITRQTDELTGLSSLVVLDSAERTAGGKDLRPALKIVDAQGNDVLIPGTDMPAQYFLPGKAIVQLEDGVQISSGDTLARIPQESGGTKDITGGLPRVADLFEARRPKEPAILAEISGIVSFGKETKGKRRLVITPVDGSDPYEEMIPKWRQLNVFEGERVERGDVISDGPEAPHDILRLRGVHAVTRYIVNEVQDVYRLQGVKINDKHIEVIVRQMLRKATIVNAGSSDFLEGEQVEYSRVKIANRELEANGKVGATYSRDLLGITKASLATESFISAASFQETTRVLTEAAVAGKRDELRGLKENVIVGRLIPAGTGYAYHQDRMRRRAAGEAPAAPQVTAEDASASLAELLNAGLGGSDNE
Chain of E. coli. RNA polymerase holoenzyme supplemented with additional recombinant sigma 70 (P00579 whole entry): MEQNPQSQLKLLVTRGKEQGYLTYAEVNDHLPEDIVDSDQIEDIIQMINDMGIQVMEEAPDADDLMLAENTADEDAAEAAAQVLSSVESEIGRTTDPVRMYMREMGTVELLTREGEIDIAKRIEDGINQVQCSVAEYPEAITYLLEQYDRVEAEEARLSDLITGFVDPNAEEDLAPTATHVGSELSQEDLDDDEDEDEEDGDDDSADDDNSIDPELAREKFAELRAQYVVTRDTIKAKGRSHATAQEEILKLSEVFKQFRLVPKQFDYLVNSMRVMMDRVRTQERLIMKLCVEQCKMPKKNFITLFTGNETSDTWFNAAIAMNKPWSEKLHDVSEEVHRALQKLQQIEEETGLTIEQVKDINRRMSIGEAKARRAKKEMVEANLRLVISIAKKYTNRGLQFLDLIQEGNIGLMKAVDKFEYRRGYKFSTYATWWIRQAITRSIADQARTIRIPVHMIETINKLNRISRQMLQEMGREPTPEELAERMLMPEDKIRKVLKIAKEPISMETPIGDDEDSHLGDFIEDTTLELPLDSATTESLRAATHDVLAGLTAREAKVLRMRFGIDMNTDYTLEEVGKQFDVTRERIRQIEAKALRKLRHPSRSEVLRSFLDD

In the case of `CO[C@H]1/C=C/O[C@@]2(C)Oc3c(C)c(O)c4c(O)c(c(/C=N/N5CCN(C)CC5)c(O)c4c3C2=O)NC(=O)/C(C)=C\C=C\[C@H](C)[C@H](O)[C@@H](C)[C@@H](O)[C@@H](C)[C@H](OC(C)=O)[C@@H]1C` [rifampin], in experiment [1], the “CPM A (label incorporated into transcript)” value was 717.00 CPM and 578.50 CPM and 452.50 CPM and 605.50 CPM.

With `CCC(C)C1NC(=O)CNC(=O)C2Cc3c([nH]c4cc(O)ccc34)[S+]([O-])CC(NC(=O)CNC1=O)C(=O)NC(CC(N)=O)C(=O)N1CC(O)CC1C(=O)NC(C(C)C(O)CO)C(=O)N2` (stereo not drawn) [α-amanitin], in experiment [2], the “CPM A (label incorporated into transcript)” value was 6477.00 CPM and 6882.00 CPM and 6999.00 CPM and 7028.50 CPM.

The values are drawn from US5635349A, “High-throughput screening assay for inhibitors of nucleic acid polymerases” (Tularik, Inc., priority 1994, dated 1997).
